Legend:
[1] = tested on: monocytes; assay: Kinetics of IL-10, TNF-α and IL-6 secretion from monocytes co-stimulated with LPS (AlphaLISA); format: cell-based, human; conditions: 1 μM, LPS 10 ng/ml
Protocol: To confirm the anti-inflammatory potential of NAT_29 (SEQ ID NO: 1), a kinetic study was performed to test the concomitant secretion of IL-10 and the major pro-inflammatory cytokines TNF-α and IL-6. To this end, monocytes were obtained as described in Example 3 and stimulated with 1 μM NAT_29 polypeptide (SEQ ID NO: 1), co-stimulated with 10 ng/ml of LPS from E. coli O111: B4 (InvivoGen, tlrl-eblps) and placed in humidified CO2 incubator at 5% CO2/37° C. for 72 h. IL-10, TNF-α and IL-6 secretion were measured at 5, 10, 24, 48 and 72 hours by AlphaLISA® on cell supernatants according to the supplier's protocol (Perkin, ref. AL218F, AL208F, AL223F) and read on an Envision plate reader (Perkin Elmer).

[2] = tested on: monocyte-derived dendritic cells (MoDCs); assay: NAT_29 dose response, IL-10 secretion from MoDCs co-stimulated with LPS (AlphaLISA); format: cell-based, human; conditions: 0.1 to 1000 nM; LPS 100 ng/ml; 24 hours
Protocol: (§1) To investigate the IL-10 inducing/enhancing capacity of NAT_29, in vitro IL-10 secretion of human immune cells in the presence of different doses of NAT_29 was tested. Briefly, human CD14+ monocytes were isolated from peripheral blood mononuclear cells (PBMCs) from healthy human volunteers by density gradient centrifugation using SepMate™-50 IVD tubes (Stemcell, Ref. 85460). The obtained PBMCs were washed thrice with Dulbeccos's phosphate buffered saline (PBS, Sigma, D88537) and lysed 10 min at room temperature in Red blood Lysis buffer 1X (Miltenyi Biotec, 130-094-183). Cells were washed with MACS buffer (Miltenyi Biotec, 130-091-221) and counted using the trypan blue dye exclusion method. CD14+monocytes were sorted using anti-human CD14 Microbeads (Miltenyi Biotec, 130-050-201) as per manufacturer's protocol. Positive CD14+ fractions were collected and seeded at 2×10^4 cells per well in 384 well plates in IMDM medium (Gibco, 12440-046) supplemented with 10% FBS and 1X antibiotic solution.
Monocyte-derived dendritic cells (MoDCs) were derived from the differentiation of CD14+ cells, obtained after the selective sorting. […]
(§2) […] IL-10 secretion were measured at 24 hours by AlphaLISA® on cell supernatants according to the supplier's protocol and read on an Envision plate reader (Perkin Elmer).

[3] = tested on: human ileal explants; assay: Ex vivo human ileal explants in Ussing chambers inflamed with E. coli LF82 (TER, histology, IL-8 ELISA); format: cell-based
Protocol: Next, the role of NAT_29 was evaluated in the context of inflammatory diseases using ex vivo experiments performed on human ileal resections. To this end, explants were mounted on Ussing Chambers in order to separate the apical side from the basolateral side as naturally occurs in the gut. Tissues were pre-incubated 1 h with NAT_29 (SEQ ID NO: 1) before inflammation was triggered with live Escherichia coli LF82 during 4 hours.
Preparation of Bacteria: The day before the assay, LB broth (Sigma Aldrich, L3522) was inoculated, using sterile loops, with bacteria from a glycerol stock (E. coli LF82-gfp) maintained at −80° C. Tubes were incubated overnight at 37° C. without shaking. The next day, optical density of the bacterial suspensions was read at 600 nm using a spectrophotometer (Amersham Ultrospec 10) allowing estimation of the bacterial cell density and bacteria were added to human explants as explained below.
Human tissue samples were obtained from patients undergoing surgery with the patients' agreement. Samples were taken from macroscopically unaffected area as identified by the surgeon. […]
Three parameters were assessed to evaluate the anti-inflammatory potential of NAT_29 in the ex vivo model: • 1) Transepithelial Electrical Resistance (TER) which is a measure of integrity/tightness of the human explants; • 2) histology; • 3) IL-8 secretion (quantified by Elisa).
TER assays are well-known methods for measuring effects on the structural and functional integrity of an epithelial cell layer, which are described, for example, in: Srinivasan et al., 2015, J Lab Autom, 20:107-126. Accordingly, the integrity/tightness of the human explants during the incubation was evaluated through Transepithelial Electrical Resistance (TER) measurement using Millicell-ERS (Electrical Resistance System) Voltohmmeter (Millipore, MERS00002). […]
IL-8 levels were measured by ELISA (BD Biosciences, 555244). […] Absorbances were measured using a microplate reader (BioTek, Synergy MX, model SMATLD) at 490 nm. […]

[4] = tested on: human CD14+ monocytes; assay: NAT_29 dose response, IL-10 secretion from monocytes co-stimulated with LPS (AlphaLISA); format: cell-based; conditions: LPS 100 ng/ml, 24 hours
Protocol: as §1, §2

What does the source list for “KKGSRSCFFIYLDRGTKKGSRSCFFYLP (NAT_29) [28-amino-acid fragment of microbiota protein ID3166]”?
IL-6 secretion ([1]; 5, 10, 24, 48 and 72 hours): no significant secretion; TNF-a secretion ([1]; 5, 10, 24, 48 and 72 hours): no significant secretion; IL-10 secretion, fold in respect to LPS, peak ([1]; peak at 24 h, mean of six monocyte donors): 2 fold; IL-10 secretion, fold in respect to LPS, after peak ([1]; until the end of the experiment (72 h)): 1,5 Fold; IL-10 secretion from MoDCs [2]: highest IL-10 levels were measured in both cell types at the highest concentration of NAT_29 tested; IL-8 secretion (ELISA, basolateral side) ([3]; 1000 or 10 nM, LF82 4 h (LF82 alone 4-fold increase)): completely abolished IL-8 secretion; TER reduction ([3]; pre-incubation 1 h at 1000 nM or 10 nM, then E. coli LF82 4 hours, LF82 alone 52%, control without LF82 24%): 32%; histology (H&E staining) of explants ([3]; pre-incubation with 1000 nM, LF82 4 h): protective effect against LF82-induced degradation; IL-10 secretion from monocytes ([4]; 0.1 to 1000 nM): highest IL-10 levels were measured in both cell types at the highest concentration of NAT_29 tested; sensitivity of monocytes versus MoDCs to the action of NAT_29 ([4]; IL-10 secretion): monocytes appeared to be more sensitive than MoDCs

Source: patent US20240327471A1, “IL-10 INDUCING POLYPEPTIDES AND USES THEREOF” (ENTEROME S.A., priority 2021, published 2024)
